Test results from ChEMBL document CHEMBL2094269, “WEHI/Eskitis Trypanosoma b. brucei screening data”.
Where “and” joins values, the source holds several entries; their conditions need not be identical. Equal values may be shown once.

What was measured:
[1] = DNDI: Cytotoxicity against human MRC-5 lung fibroblast cells.; conditions: IC50
[2] = test system: Trypanosoma brucei brucei; assay: microbe, parasite or virus in culture; format: functional, organism-based, STIB 795
Description: DNDI: Inhibition of Human African Trypanosomiasis (HAT), STIB 795, in vitro

SMILES	IC50 [1] [µM]	IC50 [2]	IC50 ([2]; Trypanosoma brucei, STIB 795) [µM]
CC(C)c1ccc(-c2csc(NC(=O)C3C4CCC(O4)C3C(=O)O)n2)cc1 (centres undefined)	> 41.7	0.879 µM	1.56
Cc1ccnc(NC(c2ccc3cccnc3c2O)c2sccc2C)c1 (centres undefined)	> 20.8	–	3.32
N#Cc1c(N)nc2[nH]nc(N)c2c1-c1ccccc1	> 20.8	–	3.04
CCN(CC)CCCCN(CCc1ccccc1)Cc1ccc(O)cc1	> 41.7	–	4.55
CCc1cccc(-n2nnnc2N2CCN(C(=O)Nc3ccc(F)cc3)CC2)c1	> 41.7	–	4.16
COc1ccc(-c2cc(-c3ccccc3)c(C#N)c([S+](C)[O-])n2)cc1 (centres undefined)	> 41.7	–	0.206
O=C(CS(=O)(=O)c1ccc(F)cc1)Nc1nc(-c2ccccn2)cs1	> 10.4	–	0.791
O=C1/C(=C/c2ccccc2)CCS(=O)(=O)c2ccccc21	> 41.7	–	5.55
CC(C)NCC(O)CC(O)(c1ccccc1)c1ccc(C(C)(C)C)cc1 (centres undefined)	> 20.8	–	5.12
C=CCNCCCCOc1ccc(Br)cc1Cl	> 41.7	–	4.95
CC(=O)NC1=C(N2CCN(C(=O)c3ccco3)CC2)C(=O)c2ccccc2C1=O	> 41.7	5.36 µM	5.41
COc1ccc2c(C)cc(Sc3cccc4cccnc34)nc2c1	> 41.7	–	5.58
Cc1cc(C)nc(C(=N)Nc2nc(-c3ccccn3)cc3ccccc23)n1	0.216	–	0.245
Cc1ccc(O)c(/N=N/c2nnc[nH]2)c1	> 10.4	–	0.404
O=C(N/N=C/c1cc2c3c(c1O)CCCN3CCC2)c1ccncc1	> 0.42	–	0.288
Cc1ccc([S@+]([O-])/C(F)=C\c2ccccn2)cc1	5.57	–	0.903
Oc1c(/N=N/c2ccccn2)ccc2ccccc12	> 20.8	–	0.718
COc1ccc(-n2nc(N3CCCC(C(=O)NC4CCCC4)C3)ccc2=O)cc1 (centres undefined)	> 41.7	–	2.28
CN1CCc2nc3sc(C(=O)c4ccc(F)cc4)c(N)c3cc2C1	> 41.7	–	6.35
CCOC(=O)c1ccc(NC(=O)Cn2c(C(F)(F)F)nc3ccccc32)cc1	> 41.7	7.85 µM	6.08
CCOc1cc(CNCCc2cccc(Cl)c2)ccc1OC	> 20.8	–	4.84
Cc1cc(C)nc(Nc2nc(N)c3ccccc3n2)n1	6.09	–	3.79
N=c1n(CCOc2ccccc2)c2ccccc2n1CCN1CCCCC1	> 20.8	2.98 µM and > 10.4 µM	–
Cc1cc(F)ccc1NC(=O)Nc1ccc(-c2noc(C3CCC3)n2)cc1	> 41.7	–	4.73
O=C(CN1C(=O)S/C(=C/c2ccccc2Cl)C1=O)N1CCOCC1	> 41.7	–	5.03

SMILES	IC50 [1] [µM]	IC50 [2]	IC50 ([2]; Trypanosoma brucei, STIB 795) [µM]
Oc1c(CN2CCCCC2)ccc2cccnc12	> 4.17	–	3.78
CCOc1ccc(N(C(C)=O)C2=C(N(C)C)C(=O)c3ccccc3C2=O)cc1	> 4.17	–	5.11
CCCCc1ccc(NC(=S)NC2CC(C)(C)NC(C)(C)C2)cc1	> 20.8	–	2.74
CC1CCN(Cc2cc(Br)c(O)c3ncccc23)CC1	5.36	–	1.63
Cc1n[nH]c(C)c1/N=N/N1CCOCC1	3.61	–	0.7
CC1CC(C)(C)Nc2ccc(OCc3cccc4ccccc34)cc21 (centres undefined)	> 20.8	–	0.832
CC(C)Cc1nc(NCCC2CCCN2C)c2cnn(-c3ccccc3)c2n1 (centres undefined)	> 20.8	–	2.66
CC[n+]1c(/C=C2\SC=C(c3ccccc3)N2C)ccc2cc(C)ccc21	> 10.4	–	0.416
Cc1c(Br)c(C(=O)N/N=C/c2c(O)ccc3ccccc23)nn1C	> 20.8	–	≤ 10.4
c1ccc(Cn2s/c(=N\c3ccccc3)nc2-c2ccccc2)cc1	> 20.8	–	1.38
C/C(=C\c1ccccc1)c1nc2c(=O)n(C)c(=O)nc-2n(C)n1	> 20.8	–	5.62
CC(C)=CC1C(C(=O)O/N=C(\N)c2ccccc2)C1(C)C (centres undefined)	> 41.7	–	1.16
NCC(c1ccc(Cl)cc1)c1ccc(-c2ccccc2)cc1 (centres undefined)	> 41.7	–	4.59
COc1ccc(CNCCc2c[nH]c3ccccc23)c(OC)c1C	> 20.8	–	5.26
COc1ccc(O)c(/C=N/Nc2ccccn2)c1	> 20.8	–	4.69
Cc1ccc(O)c(NN=C2C(=O)CC(C)(C)CC2=O)c1	> 4.17	–	5.09
O=C1c2ccccc2C(=O)c2c1ccc1nonc21	> 20.8	–	0.394
CCN(CC)c1ccc(/C=N/NC(=O)c2nn(C)cc2Cl)c(O)c1	> 41.7	–	1.44
O=C1c2ccccc2C(=O)N1/N=C/c1ccccc1	> 41.7	–	0.727
Cc1ccc(OCCCCCN2CCNCC2)c(C)c1	> 41.7	–	5.38
CCN1C(C)=C(C)S/C1=C\c1ccc2cc(C)ccc2[n+]1C	> 4.17	–	0.317
Oc1c(/N=N/c2ccc3cccc(O)c3n2)ccc2ccccc12	> 20.8	–	3.87
CCS(=O)(=O)N1CCCc2ccc(NS(=O)(=O)c3cccs3)cc21	> 41.7	–	0.796
CC(C)NCC(O)COc1cc2ccsc2c2ccccc12 (centres undefined)	7.53	–	1.54
CC[n+]1c(/C=C/c2ccc(N(C)C)cc2)sc2ccc(C(=O)OC)cc21	> 20.8	–	0.131

SMILES	IC50 [1] [µM]	IC50 [2]	IC50 ([2]; Trypanosoma brucei, STIB 795) [µM]
OCCNC1CCCc2c1[nH]c1ccc(Br)cc21 (centres undefined)	> 20.8	1.83 µM	2.45
Cc1c(-c2cccc3c2OC(C)(C)C3)ccc2nc(N)nc(N)c12	> 4.17	–	≤ 1.95
CCCN1C(=O)C(O)(CC(=O)c2cccnc2)c2cc(Br)ccc21 (centres undefined)	> 41.7	–	0.617
CN1/C(=C/c2cccc[n+]2C)Sc2ccccc21	> 20.8	–	0.477
Cc1ccc(Cn2cc(CCC(=O)NCCN3CCCC3)c3ccccc32)cc1	> 20.8	–	3.3
COc1cc(OC)nc(-n2ncc(Cl)c(Cl)c2=O)n1	4.53	–	5.32
O=C(O/N=C(/NCc1ccccc1)c1ccc(Cl)cc1)c1cccs1	> 41.7	–	0.47
O=C(COc1ccc(Cl)cc1Cl)NO	> 20.8	–	0.921
CN(C)C(=S)N/N=C1\Cc2ccccc2C1=O	> 20.8	–	0.989
CCN(CC)c1ccc(/C=N\NC(=O)Cn2nnc3ccccc32)c(O)c1	> 41.7	–	0.551
CCN(CC)c1ccc(C(Nc2ccccn2)c2ccc3cccnc3c2O)cc1 (centres undefined)	> 20.8	–	8.71
COc1cc2nc(-c3cccnc3)nc(N3CCC[C@H]3CO)c2cc1OC	> 20.8	–	5.31
Cc1ccc2oc(SCC(=O)Nc3nc4ccccc4s3)nc2n1	> 20.8	–	2.16
COCc1cc(O)nc(Nc2nc3ccc(C)cc3o2)n1	> 20.8	–	5.16
C=CCS(=O)(=O)c1nc2ccccc2s1	> 20.8	–	5.73
NC(=O)c1ccc(Nc2ccccc2)[nH]c1=O	5.28	–	5.52
O=C1NC(=S)NC(=O)C1=Cc1c2ccccc2cc2ccccc12	> 41.7	–	5.29
O=C1C=C/C(=N\Nc2ccc3c(c2)OCCO3)c2cccnc21	> 20.8	–	1.43
CSC(=S)N/N=C(\C)c1ccncn1	> 4.17	–	5.02
CCCCNCc1cc(Br)c(OCc2ccc(F)cc2)c(OC)c1	> 41.7	–	4
CCCCCOc1ccc(NC(=O)C(=O)NC2CC(C)(C)NC(C)(C)C2)cc1	> 41.7	–	4.86
Cc1[nH]c2ccc(OC(F)(F)F)cc2c1CCNCC1CC=CCC1 (centres undefined)	7.85	–	2.89
c1ccc(NN=C(c2ccccn2)c2ccccn2)nc1	> 1.04	–	0.468
CN1/C(=C/C=C/c2ccc3ccccc3[n+]2C)C=Cc2ccccc21	> 10.4	–	0.077
CCN(CC)c1ccc(/C=C/C2=[N+](C)c3ccc(C(=O)OC)cc3C2(C)C)cc1	3.86	–	0.056
